A short description of data set [1]: Oral bioavailability in BALB/c mouse at 10 mg/kg measured up to 24 hrs by LC-MS/MS analysis. It is filed as ADME, organism-based. As to conditions: in vivo.
Data set [2] in a line: Toxicity in rat assessed as NOAEL. As to conditions: in vivo.
Data set [3] concerns the target Poly [ADP-ribose] polymerase tankyrase-2 (Homo sapiens, UniProt Q9H2K2). Briefly: Inhibition of TNKS2 (unknown origin).
A further data set concerns CAPAN-1. Briefly: Antitumor activity against human CAPAN1 cells xenografted in SCID/nude mouse assessed as tumor growth inhibition at 0.3 mg/kg, po bid measured up to 5 weeks post drug administration. It is filed as functional. The following applies: CAPAN-1, po, 840 h, time weeks <=5. For orientation: A xenograft is tissue or cells of one species grown in another, often human tumour cells in immunodeficient mice.

Data set [4] concerns the target Adrenergic receptor alpha-1 (Homo sapiens) (UniProt P35348+P25100+P35368). Put plainly: Binding affinity to alpha1 adrenoceptor (unknown origin) at 10 uM. It is filed as protein assay.
Data set [5] deals with MDA-MB-436. Put plainly: Potentiation of anticancer activity against human MDA-MB-436 cells harboring BRCA mutant xenografted in SCID/nude mouse assessed as tumor growth inhibition at 0.15 mg/kg, po bid for 12 days co-administered with TMZ measured after drug administration cessation. It is filed as functional, organism-based. The following applies: time 12.0 day.
Data set [6] relates to MDA-MB-436. Put plainly: Anticancer activity against human MDA-MB-436 cells harboring BRCA mutant xenografted in SCID/nude mouse assessed as tumor growth regression at 0.05 mg/kg, po bid and measured up to 5 weeks post-drug administration. It is filed as functional. The following applies: MDA-MB-436, po, 840 h, time weeks <=5.
A further data set has as its system SK-ES1. Put plainly: Antitumor activity against human SK-ES-1 cells xenografted in SCID/nude mouse assessed as tumor growth inhibition at 0.45 mg/kg, po bid measured up to 5 weeks post drug administration. The following applies: 840 h, time weeks <=5. The data set is classed as functional.
The target of a further data set is CYP2D6 (Homo sapiens, UniProt P10635). Put plainly: Inhibition of CYP2D6 (unknown origin) at 10 uM relative to control. The data set is classed as ADME.
A short description of data set [7]: AUClast in BALB/c mouse at 1 mg/kg, iv measured up to 24 hrs by LC-MS/MS analysis. The data set is classed as ADME, organism-based. Also on record: route intravenous, dose 1 mg/kg, time <=24. As to conditions: in vivo.
Data set [8] is described as follows: Protein binding in human plasma. The following applies: read-out: PPB (converted). It is filed as ADME, cell-free.
The next data set has as its target CYP2E1 (Homo sapiens, UniProt P05181). Briefly: Inhibition of CYP2E1 (unknown origin) at 10 uM relative to control. It is filed as ADME.
Data set [9] in a line: Toxicity in rat assessed as NOAEL for CNS effect. The following applies: in vivo.
The nature of data set [10]: Metabolic stability of the compound in mouse plasma measured up to 4 hrs. It is filed as ADME, cell-free. As to conditions: read-out: Stabilty.
Data set [11] is described as follows: Tmax in BALB/c mouse at 10 mg/kg, po measured up to 24 hrs by LC-MS/MS analysis. The data set is classed as ADME, organism-based. As to conditions: in vivo.
Data set [12] addresses 5-hydroxytryptamine receptor 2B (Homo sapiens) (UniProt P41595). Briefly: Displacement of [3H]mesulergine from human recombinant 5-HT2B receptor at 10 uM incubated for 60 mins by radiometric scintillation analysis. On the technique in general: Displacement assays read how much labelled ligand stays bound in the presence of the test substance.
In the next data set the test system is MCF7. Put plainly: Cytotoxicity against human MCF7 cells harboring wild type BRCA at 1000 nM relative to control. It is filed as cell-based. As to conditions: mcf7, 1 µM.
Data set [13] in a line: Clearance in BALB/c mouse at 1 mg/kg, iv measured up to 24 hrs by LC-MS/MS analysis. It is filed as ADME, organism-based. The following applies: in vivo.
Data set [14] in a line: Toxicity against SCID/nude mouse xenografted with human MDA-MB-436 cells harboring BRCA mutant assessed as body weight loss at 0.15 mg/kg, po bid for 12 days co-administered with 35 mg/kg, po TMZ. It is filed as organism-based. As to conditions: in vivo, 288 h, time 12 day.
In data set [15] the target is Poly [ADP-ribose] polymerase 1 (Homo sapiens, UniProt P09874). Briefly: Inhibition of PARP1 in human MDA-MB-436 cells assessed as inhibition of PARylation at 10 nM incubated for 1 hr by chemiluminescence assay. The data set is classed as cell-based.

Active and inactive are the calls of the source. The rule behind the calls is not given here. Some results are limits rather than exact numbers.

A word on the bioavailability: it is the share of a dose that reaches the circulation, judged against a reference dose that is usually intravenous. For orientation: NOAEL means the highest tested level that showed no adverse finding. The term IC50 denotes the point on the concentration scale where inhibition reaches its midpoint. A lower IC50 goes with greater potency. Usually inhibition in vivo stands for how much of the control response was suppressed. A word on the inhibition: it is the change of the read-out against control, counted positive when it falls. The AUC(0-t) is the area under the concentration-time curve up to a stated or last time point. Read a high AUC(0-t) as high exposure. As a reminder, the Tmax is the time at which the peak concentration occurs. As usually defined, the clearance is the volume of plasma or blood freed of the substance per unit of time. A lower clearance goes with a low capacity for elimination.

Sequence of 5-hydroxytryptamine receptor 2B (Homo sapiens) (P41595 whole entry): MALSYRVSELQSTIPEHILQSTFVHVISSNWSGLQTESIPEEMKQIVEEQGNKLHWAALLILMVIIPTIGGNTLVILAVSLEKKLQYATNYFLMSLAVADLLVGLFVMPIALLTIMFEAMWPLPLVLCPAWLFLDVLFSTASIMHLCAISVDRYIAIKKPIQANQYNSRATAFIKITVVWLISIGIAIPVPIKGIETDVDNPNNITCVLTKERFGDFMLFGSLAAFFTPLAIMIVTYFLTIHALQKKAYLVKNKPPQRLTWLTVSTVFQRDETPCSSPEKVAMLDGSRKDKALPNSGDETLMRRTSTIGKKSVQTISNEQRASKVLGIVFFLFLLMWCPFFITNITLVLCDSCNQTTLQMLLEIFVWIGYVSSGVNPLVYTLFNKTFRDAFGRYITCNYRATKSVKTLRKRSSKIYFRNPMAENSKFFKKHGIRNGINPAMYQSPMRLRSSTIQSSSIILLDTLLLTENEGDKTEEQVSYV
Sequence of Poly [ADP-ribose] polymerase 1 (P09874 whole entry): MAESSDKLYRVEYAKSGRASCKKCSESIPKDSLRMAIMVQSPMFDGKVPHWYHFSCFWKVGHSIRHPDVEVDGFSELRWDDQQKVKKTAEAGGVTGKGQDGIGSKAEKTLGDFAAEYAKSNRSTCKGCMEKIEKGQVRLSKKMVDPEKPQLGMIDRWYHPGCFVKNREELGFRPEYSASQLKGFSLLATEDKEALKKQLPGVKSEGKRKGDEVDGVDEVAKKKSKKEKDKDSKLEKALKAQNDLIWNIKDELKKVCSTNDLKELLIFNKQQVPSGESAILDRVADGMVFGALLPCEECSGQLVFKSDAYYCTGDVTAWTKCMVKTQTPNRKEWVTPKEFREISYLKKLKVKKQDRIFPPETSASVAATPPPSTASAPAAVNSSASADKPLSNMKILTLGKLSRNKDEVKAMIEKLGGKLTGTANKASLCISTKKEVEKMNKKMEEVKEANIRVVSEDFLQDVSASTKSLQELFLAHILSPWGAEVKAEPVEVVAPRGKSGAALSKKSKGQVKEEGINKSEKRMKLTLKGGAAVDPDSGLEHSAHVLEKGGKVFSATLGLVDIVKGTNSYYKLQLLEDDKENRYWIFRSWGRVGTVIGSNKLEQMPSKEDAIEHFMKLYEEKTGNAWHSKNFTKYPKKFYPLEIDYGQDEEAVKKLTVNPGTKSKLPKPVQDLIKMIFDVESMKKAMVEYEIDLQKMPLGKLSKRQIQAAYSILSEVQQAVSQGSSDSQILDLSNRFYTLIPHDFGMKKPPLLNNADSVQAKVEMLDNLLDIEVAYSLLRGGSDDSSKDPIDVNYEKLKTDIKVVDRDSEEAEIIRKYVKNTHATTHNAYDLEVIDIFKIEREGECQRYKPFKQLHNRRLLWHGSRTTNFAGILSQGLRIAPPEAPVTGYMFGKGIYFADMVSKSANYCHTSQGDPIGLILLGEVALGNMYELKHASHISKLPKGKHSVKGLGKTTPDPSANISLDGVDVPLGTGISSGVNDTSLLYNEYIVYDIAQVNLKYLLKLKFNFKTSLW
Sequence of CYP2E1 (P05181 whole entry): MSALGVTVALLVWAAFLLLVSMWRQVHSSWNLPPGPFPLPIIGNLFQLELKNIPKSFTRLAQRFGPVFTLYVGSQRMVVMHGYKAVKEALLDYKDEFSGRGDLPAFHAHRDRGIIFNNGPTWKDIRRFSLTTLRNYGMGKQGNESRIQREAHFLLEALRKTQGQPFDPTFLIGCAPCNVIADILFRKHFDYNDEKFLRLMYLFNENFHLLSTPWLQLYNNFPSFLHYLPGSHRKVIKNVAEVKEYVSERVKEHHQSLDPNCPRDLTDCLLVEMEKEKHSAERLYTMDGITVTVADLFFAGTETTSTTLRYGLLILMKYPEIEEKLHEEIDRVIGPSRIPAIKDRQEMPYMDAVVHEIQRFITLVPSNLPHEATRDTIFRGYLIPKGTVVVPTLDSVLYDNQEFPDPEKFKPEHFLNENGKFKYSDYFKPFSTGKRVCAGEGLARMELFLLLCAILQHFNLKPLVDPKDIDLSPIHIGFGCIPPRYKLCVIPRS
Sequence of Poly [ADP-ribose] polymerase tankyrase-2 (Q9H2K2 whole entry): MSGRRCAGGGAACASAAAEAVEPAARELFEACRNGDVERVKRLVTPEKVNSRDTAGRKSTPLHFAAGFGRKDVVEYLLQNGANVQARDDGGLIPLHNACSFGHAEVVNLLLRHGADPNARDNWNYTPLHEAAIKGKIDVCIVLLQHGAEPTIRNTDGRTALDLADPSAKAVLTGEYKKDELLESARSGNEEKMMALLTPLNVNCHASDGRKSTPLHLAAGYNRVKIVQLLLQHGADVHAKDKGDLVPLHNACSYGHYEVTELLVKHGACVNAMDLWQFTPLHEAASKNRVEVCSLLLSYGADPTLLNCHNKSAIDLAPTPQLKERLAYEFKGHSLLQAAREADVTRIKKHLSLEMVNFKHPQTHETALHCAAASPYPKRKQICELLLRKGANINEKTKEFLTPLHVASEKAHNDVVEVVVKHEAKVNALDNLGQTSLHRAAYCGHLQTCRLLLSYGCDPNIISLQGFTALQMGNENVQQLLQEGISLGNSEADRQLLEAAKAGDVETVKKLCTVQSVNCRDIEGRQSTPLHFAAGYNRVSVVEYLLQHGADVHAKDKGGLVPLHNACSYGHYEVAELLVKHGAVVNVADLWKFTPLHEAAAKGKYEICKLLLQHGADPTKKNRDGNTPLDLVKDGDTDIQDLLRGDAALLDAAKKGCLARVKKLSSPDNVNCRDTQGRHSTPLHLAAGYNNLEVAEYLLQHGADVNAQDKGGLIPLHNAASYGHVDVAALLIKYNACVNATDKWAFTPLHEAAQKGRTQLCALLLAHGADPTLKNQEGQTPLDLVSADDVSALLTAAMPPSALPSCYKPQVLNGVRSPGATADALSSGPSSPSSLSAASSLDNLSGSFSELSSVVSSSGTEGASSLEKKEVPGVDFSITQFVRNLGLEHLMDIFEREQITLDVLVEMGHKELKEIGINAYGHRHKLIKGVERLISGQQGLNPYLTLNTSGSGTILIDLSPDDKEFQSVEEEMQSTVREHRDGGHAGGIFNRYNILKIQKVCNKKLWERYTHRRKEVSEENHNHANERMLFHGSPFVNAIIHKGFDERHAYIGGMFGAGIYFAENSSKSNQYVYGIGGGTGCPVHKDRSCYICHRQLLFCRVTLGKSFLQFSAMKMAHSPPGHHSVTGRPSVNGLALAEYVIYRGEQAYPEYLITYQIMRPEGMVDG
Sequence of CYP2D6 (P10635 whole entry): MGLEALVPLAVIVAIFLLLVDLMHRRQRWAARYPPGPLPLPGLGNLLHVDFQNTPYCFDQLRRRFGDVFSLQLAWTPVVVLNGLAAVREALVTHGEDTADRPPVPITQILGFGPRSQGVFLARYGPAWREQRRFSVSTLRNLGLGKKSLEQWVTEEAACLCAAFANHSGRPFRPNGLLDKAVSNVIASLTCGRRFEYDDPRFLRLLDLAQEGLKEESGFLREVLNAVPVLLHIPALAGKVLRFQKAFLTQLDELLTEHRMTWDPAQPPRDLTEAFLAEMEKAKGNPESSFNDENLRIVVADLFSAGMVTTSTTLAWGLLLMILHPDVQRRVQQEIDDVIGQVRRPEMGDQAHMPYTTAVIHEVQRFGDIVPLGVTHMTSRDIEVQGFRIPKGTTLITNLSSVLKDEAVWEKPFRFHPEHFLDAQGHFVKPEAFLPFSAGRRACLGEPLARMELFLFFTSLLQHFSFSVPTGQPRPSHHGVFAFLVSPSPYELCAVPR

The compound `N#Cc1ccc(N2CCN([C@H]3C=C(c4cc5ncccc5c(=O)[nH]4)CC3)CC2)cc1` yielded a bioavailability in [1] of 43%. Also, the NOAEL is 15 mg/kg/day in data set [2] and 30 mg/kg/day in [9]. The half-maximal inhibitory concentration (IC50) in data set [3] was determined as 74 nM. Besides, the inhibition in vivo at 0.3 mg/kg with CAPAN-1 came out at 49.6%. Also, the Activity in data set [4] is 70%; in [12], 70%; in the data set on MCF7, 36%; in data set [14] it was “Non-Toxic”. The outcome with MDA-MB-436 [5] was Active. Besides, in the data set with MDA-MB-436 [6], the inhibition in vivo at 0.05 mg/kg worked out at 83%. In addition, the inhibition in vivo at 0.45 mg/kg in the data set with SK-ES1 amounted to 20%. The inhibition at 10 µM against CYP2D6 and against CYP2E1 was no more than 23% each time. This compound also had an AUC(0-t) at 24 h in data set [7] of 94 µM·h. The fraction unbound in [8] is 0.017. Further, the remaining at 4 h in [10] was found to be 80%. Besides, in data set [11], the Tmax came out at 1 h. The clearance in [13] is 0.4 mL/min/kg. For the same compound, in [15], the inhibition was found to be 82%.

The values are drawn from ChEMBL document CHEMBL4673259, “Discovery of isoquinolinone and naphthyridinone-based inhibitors of poly(ADP-ribose) polymerase-1 (PARP1) as anticancer agents: Structure activity relationship and preclinical characterization” (Bioorg Med Chem, 2020).
